≈ marks a conversion by molar mass, not a printed value. Calls of active or inactive are those of the source. The rule behind the calls is not given here.
Tests used:
[1] = test system: MDA-MB-453; test: Antitumor activity against human MDA-MB-453 expressing erbB2 cells xenografted bearing female athymic nu-nu CD-1 mouse assessed as inhibition in tumor growth at 50 mg/kg, po bid administration and measured at 29 day relative to control; format: functional; conditions: MDA-MB-453, 696 h
[2] = Toxicity in human erbB2 transfected FRE cells xenografted bearing female athymic nu-nu CD-1 mouse assessed as mortality at 50 mg/kg, po QD administrated for 8 to 40 days; format: organism-based; conditions: in vivo, time 8-40 day
[3] = molecular target: T1, Receptor tyrosine-protein kinase erbB-2 (Homo sapiens, UniProt P04626); test: Inhibition of human erbB2 intracellular domain transfected in mouse NIH3T3 cells assessed as potency reduction in autophosphorylation of the chimera erbB2 incubated for 2 hrs in the presence of EGF stimulation by westernblot analysis; format: cell-based
T1 sequence (P04626 whole entry, the tested form may be a part): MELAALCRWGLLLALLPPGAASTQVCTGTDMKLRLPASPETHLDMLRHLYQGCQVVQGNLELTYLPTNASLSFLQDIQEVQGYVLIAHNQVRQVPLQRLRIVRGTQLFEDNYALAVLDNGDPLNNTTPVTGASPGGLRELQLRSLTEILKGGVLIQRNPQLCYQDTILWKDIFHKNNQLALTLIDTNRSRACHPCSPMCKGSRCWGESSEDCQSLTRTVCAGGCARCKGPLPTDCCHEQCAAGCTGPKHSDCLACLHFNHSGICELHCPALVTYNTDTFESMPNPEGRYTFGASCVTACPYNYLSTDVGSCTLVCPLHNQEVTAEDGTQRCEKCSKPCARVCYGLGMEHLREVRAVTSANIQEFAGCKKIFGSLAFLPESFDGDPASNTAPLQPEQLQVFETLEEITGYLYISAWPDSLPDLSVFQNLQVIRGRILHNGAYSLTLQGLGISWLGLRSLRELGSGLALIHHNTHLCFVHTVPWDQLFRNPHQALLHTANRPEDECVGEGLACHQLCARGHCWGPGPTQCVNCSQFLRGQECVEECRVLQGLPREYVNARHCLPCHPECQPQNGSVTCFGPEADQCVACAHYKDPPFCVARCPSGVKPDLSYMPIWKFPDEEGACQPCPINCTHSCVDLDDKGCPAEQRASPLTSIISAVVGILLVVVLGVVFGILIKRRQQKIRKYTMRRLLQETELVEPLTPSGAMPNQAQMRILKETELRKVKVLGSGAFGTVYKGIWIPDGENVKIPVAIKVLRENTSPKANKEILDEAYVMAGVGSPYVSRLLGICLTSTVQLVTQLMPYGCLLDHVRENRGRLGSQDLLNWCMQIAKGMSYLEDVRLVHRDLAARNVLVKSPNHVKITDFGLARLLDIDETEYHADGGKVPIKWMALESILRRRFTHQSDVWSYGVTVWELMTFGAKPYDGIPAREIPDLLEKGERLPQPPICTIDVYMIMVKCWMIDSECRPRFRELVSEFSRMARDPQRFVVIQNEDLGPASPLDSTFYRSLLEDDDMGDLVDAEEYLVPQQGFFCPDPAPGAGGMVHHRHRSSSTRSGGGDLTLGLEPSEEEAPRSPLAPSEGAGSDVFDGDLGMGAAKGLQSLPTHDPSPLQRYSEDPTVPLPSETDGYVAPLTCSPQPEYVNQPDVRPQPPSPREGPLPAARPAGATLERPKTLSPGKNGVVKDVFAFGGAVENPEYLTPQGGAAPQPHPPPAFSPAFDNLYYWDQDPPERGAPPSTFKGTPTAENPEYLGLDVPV

[4] = Antitumor activity against human erbB2 transfected FRE cells xenografted bearing female athymic nu-nu CD-1 mouse assessed as apoptotic changes at 100 mg/kg, po administration and measured at 8 hrs by H&E staining method relative to control; format: functional
[5] = Antitumor activity against human erbB2 transfected FRE cells xenografted bearing female athymic nu-nu CD-1 mouse assessed as reduction in tumor erbB2 receptor phosphorylation at 25 mg/kg, po and measured at 30 mins by ELISA method relative to control; format: functional; set-up: scale not given: the % may be the effect or the level left; conditions: 0.5 h
[6] = test system: MDA-MB-453; test: Antitumor activity against human MDA-MB-453 high expressing erbB2 cells xenografted bearing female athymic nu-nu CD-1 mouse assessed as inhibition in tumor regression at 100 mg/kg, po bid administrated for 8 to 40 days relative to control; format: functional; conditions: time 8-40 day
[7] = test system: BT-474; test: Antitumor activity against human BT-474 high expressing erbB2 cells xenografted bearing female athymic nu-nu CD-1 mouse assessed as reduction in tumor phospho-Erk level at 30 to 100 mg/kg, po after 0.5 hrs administration by western blot analysis relative to control; format: functional; set-up: scale not given: the % may be the effect or the level left; conditions: dose 30-100 mg/kg
[8] = test system: BT-474; test: Antitumor activity against human BT-474-erbB2 cells xenografted bearing female athymic nu-nu CD-1 mouse assessed as reduction in tumor erbB2 receptor phosphorylation, po administration by ELISA method; format: functional, organism-based
[9] = test system: MDA-MB-453; test: Antitumor activity against human MDA-MB-453 expressing erbB2 cells xenografted bearing female athymic nu-nu CD-1 mouse assessed as inhibition in tumor growth at 100 mg/kg, po bid administration and measured at 29 day relative to control; format: functional; conditions: MDA-MB-453, 696 h
[10] = Antitumor activity against human erbB2 transfected FRE cells xenografted bearing female athymic nu-nu CD-1 mouse assessed as inhibition in tumor growth at 50 mg/kg, po QD administrated for 8 to 40 days relative to control; format: functional; conditions: time 8-40 day
[11] = test system: BT-474; test: Antitumor activity against human BT-474 expressing erbB2 cells xenografted bearing female athymic nu-nu CD-1 mouse assessed as reduction in tumor erbB2 receptor phosphorylation at 1 to 30 mg/kg, po bid administration and measured at 40 day by ELISA method relative to control; format: functional; set-up: scale not given: the % may be the effect or the level left; conditions: dose 1-30 mg/kg
[12] = test system: BT-474; test: Inhibition of colony formation in human BT-474 cells overexpressing erbB2 assessed as decrease in colony formation at 1 micromol/L by methanolic crystal violet staining relative to control; format: functional; conditions: dose 1 µmol/L
[13] = test system: SK-BR-3; test: Inhibition of colony formation in human SK-BR-3 cells overexpressing erbB2 assessed as decrease in colony formation at 3 micromol/L by methanolic crystal violet staining relative to control; format: functional; conditions: dose 3 µmol/L
[14] = test system: MDA-MB-453; test: Antiproliferative activity against human MDA-MB-453 cells assessed as inhibition of cell growth; format: functional, cell-based
[15] = test system: MDA-MB-175-VII; test: Antiproliferative activity against human MDA-MB-175-VII cells assessed as inhibition of cell growth; format: functional, cell-based
[16] = test system: FRE; test: Antitumor activity against human erbB2 transfected FRE cells xenografted bearing female athymic nu-nu CD-1 mouse assessed as tumor erbB2 receptor phosphorylation at 25 mg/kg, po administration and measured at 4 hrs by ELISA method; format: functional, organism-based
[17] = test system: MDA-MB-453; test: Antitumor activity against human MDA-MB-453 high expressing erbB2 cells xenografted bearing female athymic nu-nu CD-1 mouse assessed as inhibition in tumor growth at 100 mg/kg, po bid administrated for 8 to 40 days relative to control; format: functional; conditions: time 8-40 day
[18] = test system: BT-474; test: Antitumor activity against human BT-474 high expressing erbB2 cells xenografted bearing female athymic nu-nu CD-1 mouse assessed as reduction in tumor phospho-Akt level at 100 mg/kg, po after 0.5 hrs administration by western blot analysis relative to control; format: functional; set-up: scale not given: the % may be the effect or the level left
[19] = test system: BT-474; test: Antitumor activity against human BT-474 expressing erbB2 cells xenografted bearing female athymic nu-nu CD-1 mouse assessed as decrease in tumor growth at 30 mg/kg, po bid administration and measured at 14 day; format: functional, organism-based
[20] = Average plasma concentration (0 to 4 hrs) in human erbB2 transfected FRE cells xenografted bearing female athymic nu-nu CD-1 mouse at 50 mg/kg, po QD administrated for 8 to 40 days by liquid chromatography-tandem mass spectrometry analysis; format: ADME, organism-based; conditions: in vivo, time 8-40 day
[21] = test system: FRE; test: Antitumor activity against human erbB2 transfected FRE cells xenografted bearing female athymic nu-nu CD-1 mouse assessed as increase in cleaved caspase-3 cells at 100 mg/kg, po administration and measured at 8 hrs by immunohistochemical analysis; format: functional, organism-based
[22] = test system: COLO 205; test: Antitumor activity against human COLO 205 low expressing erbB2 cells xenografted bearing female athymic nu-nu CD-1 mouse assessed as inhibition in tumor growth at 100 mg/kg, po bid administrated for 14 to 31 days relative to control; format: functional; conditions: time 14-31 day
[23] = test system: BT-474; test: Induction of cell cycle arrest in Her2-amplified human BT-474 cells overexpressing erbB2 assessed as increase in G1 phase at 1 micromol/L incubated for 24 hrs by flow cytometry analysis relative to control; format: functional; conditions: dose 1 µmol/L, at 1 µM
[24] = Antitumor activity against human erbB2 transfected FRE cells xenografted bearing female athymic nu-nu CD-1 mouse assessed as reduction in tumor erbB2 receptor phosphorylation, po administration by ELISA method; format: functional, organism-based
[25] = test system: BT-474; test: Antitumor activity against human BT-474 expressing erbB2 cells xenografted bearing female athymic nu-nu CD-1 mouse assessed as inhibition in tumor growth at 1 mg/kg, po bid administration and measured at 40 day relative to control; format: functional; conditions: BT-474, 960 h
[26] = molecular target: T1, Receptor tyrosine-protein kinase erbB-2; test: Inhibition of human recombinant intracellular domain of erbB2; format: cell-based
[27] = test system: ZR-75-30; test: Antiproliferative activity against human ZR-75-30 cells assessed as inhibition of cell growth; format: functional, cell-based
[28] = test system: MCF7; test: Antiproliferative activity against human MCF7 cells assessed as inhibition of cell growth; format: functional, cell-based
[29] = Antiproliferative activity against human EFM-192A cells assessed as inhibition of cell growth; format: functional, cell-based
[30] = test system: HCC1419; test: Antiproliferative activity against human HCC1419 cells assessed as inhibition of cell growth; format: functional, cell-based
[31] = test system: BT-474; test: Antitumor activity against human BT-474 cells expressing erbB2 xenografted bearing female athymic nu-nu CD-1 mouse assessed as inhibition in tumor growth at 100 mg/kg, po bid administration and measured at 40 day relative to control; format: functional; conditions: BT-474, 960 h
[32] = test system: FRE; test: Antitumor activity against human erbB2 transfected FRE cells xenografted bearing female athymic nu-nu CD-1 mouse assessed as tumor erbB2 receptor phosphorylation at 3.125 to 100 mg/kg, po administration by ELISA method; format: functional, organism-based; conditions: dose 3.125-100 mg/kg
[33] = test system: BT-474; test: Antitumor activity against human BT-474 expressing erbB2 cells xenografted bearing female athymic nu-nu CD-1 mouse assessed as tumor regression at 100 mg/kg, po bid administration and measured at 9 day relative to control; format: functional

SMILES: COCC(=O)NC/C=C/c1ccc2ncnc(Nc3ccc(Oc4ccc(C)nc4)c(C)c3)c2c1 [CP-724714]
- inhibition in vivo at 50 mg/kg [1]: 66%
- Activity [2]: Non-Toxic
- IC50 [3]: 32 nM
- Activity [4]: 75%
- Activity [5]: ~75%
- inhibition in vivo at 100 mg/kg [6]: 83%
- Activity [7]: ~75%
- EC50 [8]: 0.77 µg/mL (≈ 1.64 µM)
- inhibition in vivo at 100 mg/kg [9]: 83%
- inhibition in vivo at 50 mg/kg [10]: ~50%
- Activity [11]: 10%
- inhibition at 1 µM [12]: > 80%
- inhibition at 3 µM [13]: > 80%
- IC50 [14]: 2500 nM
- IC50 [15]: 810 nM
- Activity [16]: inactive
- inhibition in vivo at 100 mg/kg [17]: 83%
- Activity [18]: 70%
- Activity [19]: Active
- Cave [20]: 1300 ng/mL
- Activity [21]: Active
- inhibition in vivo at 100 mg/kg [22]: 46%
- Activity [23]: 83%
- EC50 [24]: 1 µg/mL (≈ 2.13 µM)
- inhibition in vivo at 1 mg/kg [25]: 41%
- IC50 [26]: 10 nM
- IC50 [27]: 1500 nM
- IC50 [28]: 9800 nM
- IC50 [29]: 960 nM
- IC50 [30]: 1000 nM
- inhibition in vivo at 100 mg/kg [31]: 100%
- Activity [32]: Active
- Activity [33]: ~6%
